Values of other authors, collected in patent US20130115246A1 (Lupin Atlantis Holdings, S.A., priority 2011, published 2013).

Conditions: in vivo

elimination half-life: about 20 hours
SMILES: CC(C)(Oc1ccc(C(=O)c2ccc(Cl)cc2)cc1)C(=O)O [Fenofibric acid]
